The values below come from patent US20050171203A1, “Pregabalin composition” (Pfizer Inc., priority 2003, published 2005).

For series [1], the system named is bacteria; yeasts and molds; E. coli. The experiment in a line: antimicrobial efficacy testing (microbial limit test, European Pharmacopoeia 5th ed.). Particulars: glycerol as preservative.
The conditions of series [2]: storage at 5° C.
A short description of series [3]: observations on preserved pregabalin compositions (Remarks of Table 1: pH, particles, color, mold). Format: physicochemical. Particulars: sorbic acid used with pregabalin. The text has this: Other common preservatives, such as ethanol, are unsuitable for use in pediatric formulations.
In TABLE 1, the annotations “Meets Ph. Eur.” and “Fails Ph. Eur.” refer to whether the test results meet or fail the microbial limit test as defined in the current edition of European Pharmacopoeia (5th ed., 2004): 1000 bacteria per g (max); 100 yeasts and molds per g (max); and free of E. coli.

For `OCC(O)CO` [glycerol], the “compliance with requirements of European Pharmacopoeia (5th ed., 2004)” value in series [1] is reported as “does not comply”. Further, the “behaviour in solution under storage” value in series [2] is given as “precipitated out of solution”.

Consider `O=C1NS(=O)(=O)c2ccccc21.[Na]` [sodium saccharin], for which the “behaviour in solution under storage” value in series [2] is reported as “remained in solution”.

As to `C/C=C/C=C/C(=O)O` [sorbic acid], in series [3], the “appearance of the solution” value was “discoloration of the solution” and the “shift in pH” value came out at 5.0.

Regarding `OC[C@@H](O)[C@H](O)[C@@H](O)CO` [xylitol], the “behaviour in solution under storage” value in series [2] is listed as “precipitated out of solution”.
